One assay has as its target Acetylcholinesterase (Electrophorus electricus, UniProt O42275). Nature of the assay: Inhibition of Electrophorus electricus (electric eel) acetylcholinesterase (AChE) using […] as substrate by Ellman method.
Assay [1] concerns the target Cholinesterase (Equus caballus) (UniProt P81908). Description: Inhibition of Equus caballus (horse) serum butyrylcholinesterase (BChE) at 10 '-4 M by Ellman method. For orientation: Ellman's reagent forms a yellow product with free thiols.
Assay [2] has as its target Acetylcholinesterase (Electrophorus electricus) (UniProt O42275). Nature of the assay: Inhibition of Electrophorus electricus (electric eel) acetylcholinesterase (AChE) using […] as substrate at 10 '-5 M by Ellman method.
Assay [3] has as its target Cholinesterase (Equus caballus) (UniProt P81908). Description: Inhibition of Equus caballus (horse) serum butyrylcholinesterase (BChE) at 10 '-5 M by Ellman method.

Each structure is given as a SMILES string.

Cholinesterase (Equus caballus), sequence (P81908 whole entry): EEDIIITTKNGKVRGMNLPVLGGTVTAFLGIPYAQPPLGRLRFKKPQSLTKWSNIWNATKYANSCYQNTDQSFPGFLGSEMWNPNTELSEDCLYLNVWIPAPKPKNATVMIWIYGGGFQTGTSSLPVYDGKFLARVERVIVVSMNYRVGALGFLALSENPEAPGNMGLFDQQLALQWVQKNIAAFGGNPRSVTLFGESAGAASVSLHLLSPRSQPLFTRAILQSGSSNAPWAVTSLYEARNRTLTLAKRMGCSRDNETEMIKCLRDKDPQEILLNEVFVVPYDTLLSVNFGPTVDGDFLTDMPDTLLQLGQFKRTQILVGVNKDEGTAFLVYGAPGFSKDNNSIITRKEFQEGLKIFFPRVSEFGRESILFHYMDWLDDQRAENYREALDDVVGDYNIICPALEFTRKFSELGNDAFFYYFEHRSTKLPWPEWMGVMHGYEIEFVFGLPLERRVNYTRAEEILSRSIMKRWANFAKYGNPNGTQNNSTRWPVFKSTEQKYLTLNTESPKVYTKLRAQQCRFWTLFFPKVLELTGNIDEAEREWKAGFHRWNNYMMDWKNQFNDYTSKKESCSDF
Acetylcholinesterase, sequence (O42275 whole entry): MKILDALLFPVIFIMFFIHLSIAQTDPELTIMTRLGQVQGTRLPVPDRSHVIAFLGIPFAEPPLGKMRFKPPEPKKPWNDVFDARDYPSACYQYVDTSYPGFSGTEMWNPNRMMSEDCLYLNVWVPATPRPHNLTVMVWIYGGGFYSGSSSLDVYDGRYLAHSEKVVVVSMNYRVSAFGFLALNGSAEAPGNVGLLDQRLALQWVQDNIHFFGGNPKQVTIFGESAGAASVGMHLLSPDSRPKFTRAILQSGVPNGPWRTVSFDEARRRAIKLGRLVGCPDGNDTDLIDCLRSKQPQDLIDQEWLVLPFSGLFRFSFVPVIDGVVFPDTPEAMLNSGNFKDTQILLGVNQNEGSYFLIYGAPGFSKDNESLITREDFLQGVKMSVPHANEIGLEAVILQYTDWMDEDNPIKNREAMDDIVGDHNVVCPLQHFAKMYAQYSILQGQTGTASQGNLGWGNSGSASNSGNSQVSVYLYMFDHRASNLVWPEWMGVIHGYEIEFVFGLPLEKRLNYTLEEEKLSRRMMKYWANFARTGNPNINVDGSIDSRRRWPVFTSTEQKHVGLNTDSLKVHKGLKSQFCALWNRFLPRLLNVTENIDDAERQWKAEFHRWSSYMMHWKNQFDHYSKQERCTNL
Acetylcholinesterase (Electrophorus electricus), sequence (O42275 24-633 limits assumed): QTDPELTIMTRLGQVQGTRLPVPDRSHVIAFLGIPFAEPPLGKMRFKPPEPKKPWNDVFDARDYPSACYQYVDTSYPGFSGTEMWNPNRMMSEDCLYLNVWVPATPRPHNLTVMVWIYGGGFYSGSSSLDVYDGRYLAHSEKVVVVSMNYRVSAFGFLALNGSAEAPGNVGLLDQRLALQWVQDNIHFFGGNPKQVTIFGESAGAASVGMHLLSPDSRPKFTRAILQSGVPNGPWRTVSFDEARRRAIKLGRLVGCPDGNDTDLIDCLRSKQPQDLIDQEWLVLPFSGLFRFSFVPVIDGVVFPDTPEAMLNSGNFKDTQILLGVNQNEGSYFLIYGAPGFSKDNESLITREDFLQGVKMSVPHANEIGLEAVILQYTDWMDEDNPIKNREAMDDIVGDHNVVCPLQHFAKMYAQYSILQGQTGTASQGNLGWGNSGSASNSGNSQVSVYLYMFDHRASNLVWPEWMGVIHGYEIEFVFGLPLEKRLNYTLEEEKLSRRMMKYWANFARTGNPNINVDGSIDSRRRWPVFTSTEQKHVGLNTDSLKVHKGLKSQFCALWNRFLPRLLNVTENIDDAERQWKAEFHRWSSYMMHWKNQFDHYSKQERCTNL

One may read the IC50 as the concentration at which inhibition is half-maximal. Read a high IC50 as weaker potency. Regarding `COc1ccc(C(O)c2nccc3cc(OC)c(OC)cc23)cc1OC` (stereo not drawn), half-maximal inhibition against Acetylcholinesterase (IC50) required 10.7 µM.

In turn, `COc1ccc(Cc2nccc3cc(OC)c(OC)cc23)cc1OC` [PAPAVERINE] returned an IC50 against Acetylcholinesterase of 24.3 µM.

As usually defined, the inhibition is the share of the control response that was lost under treatment. Lower therefore signals a response near the control. Take `COc1ccc(CCNC(=O)Cc2ccc(OC)c(OC)c2)cc1OC`: the inhibition in assay [1] is 1.7%; in assay [2] it was 5.9%; in assay [3], 0%.

Regarding `COc1ccc(CC2=NCCc3cc(OC)c(OC)cc32)cc1OC`, the inhibition was determined as 18% in assay [1], 53% in assay [2] and 0% in assay [3]. Moreover, the IC50 at Acetylcholinesterase was found to be 7 µM.

`COc1ccc(C(=O)c2nccc3cc(OC)c(OC)cc23)cc1OC` yielded an inhibition in assay [2] of 2.3%.

Turning to `COc1ccc(CC2NCCc3cc(OC)c(OC)cc32)cc1OC` (stereo not drawn), the inhibition was 17.4% in assay [1], 9% in assay [2] and 5.2% in assay [3].

Values taken from ChEMBL document CHEMBL3046796, “Evaluation of a new lead for acetylcholinesterase inhibition” (Med Chem Res, 2009).
